The record followed here is US20120123760A1, “METHOD FOR DESIGNING AN APTAMER” (Technology Innovations, LLC, priority 2010, published 2012).

Assay [1] is described as follows: Fluorescence assay of 6FAM-labelled aptamer bound to DPPC+DPPS liposomes. The class given is binding. From the text: (§1) Two of the top-ranked 6-mer DNA designed aptamers targeting PS were chosen for experimental investigations. Both sequences containing fluorescence tags (6FAM is on the 3′ end of the DNA sequence) were obtained from Integrated DNA Technologies, Commercial Park, Coralville Iowa, USA. 96 well assay plates for fluorescence assays using FLUOstar OPTIMA (BMG Labtech GmbH, Offenburg, Germany) were from Corning Inc., New York, USA. Two lipids, 1,2-dipalmitoyl-sn-glycero-3-phosphatidylcholine (DPPC) and 1,2-dipalmitoyl-sn-glycero-3-phospho-L-serine (sodium salt) (DPPS) in chloroform stock and cholesterol (powder) were obtained from Avanti Polar Lipids (Alabaster, Ala., USA). They were used without further purification.
(§2) Two liposomes were prepared for studying binding affinity and specificity. One uses DPPC and DPPS at a 10:1 DPPC/DPPS molar ratio and the second one uses DPPC alone. […] 100 μL from this final solution was loaded into each of the 96 wells on the fluorescence plate to measure fluorescence of the samples. […]
(§3) Both sequences containing fluorescence tags (6FAM is on the 3′ end of the DNA sequence) were obtained from Integrated DNA Technologies, Commercial Park, Coralville Iowa, USA. 96 well assay plates for fluorescence assays using FLUOstar OPTIMA (BMG Labtech GmbH, Offenburg, Germany) were from Corning Inc., New York, USA. […]

The nature of assay [2]: Fluorescence assay of 6FAM-labelled aptamer bound to DPPC alone liposomes (control without PS). The class given is binding. Particulars: FIG. 8 right panel.
From the text: as §1, §2, §3

Consider AAAGAC [PS-aptamer II], for which the “binding affinity (inferred from fluorescence)” value in assay [1] is “relatively better or stronger binding affinity than PS-aptamer I”. In addition, the “fluorescence level from bound DNA aptamer” value in assay [1] (FIG. 8 left panel, aptamer beyond 0.165 nmol) is reported as “higher fluorescence level than PS-aptamer I”; in assay [2], “binds either poorly or not at all”.
